Entries after “also recorded” stand apart in the source; their conditions may differ. Like-named read-outs stand apart in the source and are kept apart here.
Experiments:
O-GlcNAcase [1] = target: T1, O-GlcNAcase (Homo sapiens, UniProt O60502)
T1 sequence (O60502 1-916): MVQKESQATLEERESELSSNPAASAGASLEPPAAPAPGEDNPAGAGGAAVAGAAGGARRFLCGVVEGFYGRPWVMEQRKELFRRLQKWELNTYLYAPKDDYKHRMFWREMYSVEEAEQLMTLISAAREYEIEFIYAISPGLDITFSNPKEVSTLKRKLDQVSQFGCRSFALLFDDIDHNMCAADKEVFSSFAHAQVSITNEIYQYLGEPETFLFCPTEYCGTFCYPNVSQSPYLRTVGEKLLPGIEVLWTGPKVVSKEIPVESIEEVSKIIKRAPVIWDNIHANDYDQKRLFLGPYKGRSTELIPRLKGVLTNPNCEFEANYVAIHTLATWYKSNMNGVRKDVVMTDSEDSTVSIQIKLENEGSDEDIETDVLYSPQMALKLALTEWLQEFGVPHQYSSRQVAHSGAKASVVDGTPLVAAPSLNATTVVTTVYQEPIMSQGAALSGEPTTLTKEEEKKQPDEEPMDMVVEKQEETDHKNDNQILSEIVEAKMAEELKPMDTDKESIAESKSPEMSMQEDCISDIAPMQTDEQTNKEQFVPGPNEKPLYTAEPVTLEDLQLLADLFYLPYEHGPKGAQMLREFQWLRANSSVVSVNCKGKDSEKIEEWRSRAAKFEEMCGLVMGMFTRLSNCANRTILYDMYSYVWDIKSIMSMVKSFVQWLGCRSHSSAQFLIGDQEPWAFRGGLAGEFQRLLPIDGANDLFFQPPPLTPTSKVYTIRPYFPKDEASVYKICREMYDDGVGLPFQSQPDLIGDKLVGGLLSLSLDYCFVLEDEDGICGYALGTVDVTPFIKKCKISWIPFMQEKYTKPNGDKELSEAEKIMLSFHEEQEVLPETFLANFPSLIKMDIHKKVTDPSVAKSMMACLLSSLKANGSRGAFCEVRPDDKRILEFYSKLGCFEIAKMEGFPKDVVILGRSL

[2] = system: O-GlcNAc-modified proteins in COS-7 cells; assay: Western blot of O-GlcNAc-modified proteins in COS-7 cells cultured with inhibitors; type: cell-based; conditions: 50 μM inhibitor, 40 hours, Western blot
Protocol: (§1) COS-7 cells were cultured in DMEM medium (Invitrogen) supplemented with 5-10% FBS (Invitrogen). Aliquots of inhibitors (50 μL of a stock in 95% ethanol) were delivered onto tissue culture plates and the ethanol was evaporated. The cells were incubated at 37° C. for 40 hours at which time they reached approximately 80% confluence. […] COS-7 cells were cultured to 25% confluence in 5% FBS and an aliquot (100 μL) of inhibitor dissolved in media and filter sterilized was added to each plate to yield a final concentration of 50 μM of inhibitor. COS-7 cells (2×10 cm plates) were harvested at the appropriate times by scraping and were pooled by centrifugation (200×g, 10 min). Cells were washed once with PBS, pH 7.0 (10 mL) and pelleted (200×g, 10 min). The cells could be frozen at −80° C. at this point. Control cultures without inhibitors were treated in the same manner.
A culture of control cells was treated in the same manner as follows but the cultures contained no inhibitor. Cells were harvested as described above. Frozen cells were thawed at 4° C., and cold lysis buffer (1 mL of 50 mM Tris, pH 8.0 containing 150 mM NaCl, 1 mM EDTA, 1 mM PMSF, 1% NP-40, 0.5% sodium deoxycholate, and 1 mM of inhibitor 90) was added. After 10 minutes at 4° C. the solution was centrifuged at 14,000 rpm in an Eppendorf 5415C microcentrifuge and the supernatant was collected. SDS/PAGE loading buffer was added to an aliquot (15 μL) of each sample, and after heating at 96° C. aliquots were loaded onto 10% or 12% Tris-HCl polyacrylamide gels. After electrophoresis, the samples were electroblotted to nitrocellulose membrane (0.45 μm, Bio-Rad). Transfer was verified by visual inspection of the transfer of prestained markers (Dual Colour Precision Plus Protein Standard—Biorad). The membrane was blocked by using 5% BSA (fraction V, Sigma) in PBS (blocking buffer A for samples probed with mouse anti-O-GlcNAc monoclonal IgM antibody (MAb CTD 110.6—Covance)) or 5% low-fat dry powdered milk (blocking buffer B for samples probed with anti-β-actin), pH 7.4, containing 0.1% Tween 20 for 1 h at room temperature or overnight at 4° C. The blocking solution was decanted, and a solution of blocking buffer A containing MAb CTD 110.6 (1:2500 of the stock) or blocking buffer B containing mouse monoclonal anti-β-actin IgG (Clone AC-40—Sigma) was added (1:1000 dilution) as appropriate. The membrane was incubated at room temperature for 1 h or overnight at 4° C. after which the blocking buffer was decanted and the membrane was rinsed with PBS, pH 7.4, containing 0.1% Tween 20 (wash buffer). Membranes were then rinsed for 2×5 min and 3×15 min with wash buffer. For immunological detection of O-GlcNAc, the membrane was incubated in blocking buffer A for 1 hour at RT and, after washing, the membrane was incubated with a secondary goat anti-mouse-IgM-HRP-conjugate (1:2500, Santa Cruz Biotech) for one hour at RT or 4° C. overnight in blocking solution. For detection of β-actin levels, the membrane was incubated with a secondary goat anti-mouse-IgG-HRP conjugate (1:100000, Sigma) for one hour at RT or 4° C. overnight in blocking solution B. Membranes were washed and detection of membrane bound goat anti-mouse-IgG-HRP conjugate was accomplished by chemiluminescent detection using the SuperSignal West Pico Chemiluminescent Detection Kit (Pierce) and film (Kodak Biomax MR).

COS-7 cells = assay: Proliferation rate and morphology of COS-7 cells incubated with inhibitors; type: cell-based; conditions: 50 μM inhibitor
Protocol: as §1

[3] = target: human placental β-hexosaminidase; assay: Inhibition of β-hexosaminidase, substrate MU-GlcNAc (5), Dixon plots
[4] = Decomposition of STZ in D2O followed by NMR; conditions: room temperature
β-hexosaminidase = assay: Time dependent inactivation of β-hexosaminidase by STZ; conditions: 10 mM STZ, pH 4.25, over six hours
O-GlcNAcase [5] = conditions: read-out: IC50, O-GlcNAcase, previous determinations; cited from earlier work
O-GlcNAcase [6] = target: T1, O-GlcNAcase; assay: Time dependent inactivation of O-GlcNAcase by STZ

Row | binding more tightly than GlcNAc, β-hexosaminidase [3] | SMILES | inhibition of O-GlcNAcase, in words (O-GlcNAcase [1]) | cellular levels of O-GlcNAc-modified proteins compared to control [2] | proliferation rate or morphology compared to control cells (COS-7 cells) | selectivity for O-GlcNAcase over β-hexosaminidase, in words (O-GlcNAcase [1]) | selectivity ratio for O-GlcNAcase over β-hexosaminidase (O-GlcNAcase [1]) | Selectivity Ratio (β-Hex KI/O-GlcNAcase KI) (O-GlcNAcase [1]; Table 2) | Ki (O-GlcNAcase [1]; read-out: KI, O-GlcNAcase, pH 6.5) | Ki ([3]; read-out: KI, β-hexosaminidase, human lysosomal β-hexosaminidase) | Ki ([3]; read-out: β-Hexosaminidase KI, Table 2, substrate 5 at 0.64 mM, pH 4.25, Dixon plots) | half-life in aqueous solution (D2O) [4] | time dependent inactivation of β-hexosaminidase (β-hexosaminidase) | IC50 (O-GlcNAcase [5]) | time dependent inactivation of O-GlcNAcase (O-GlcNAcase [6]; 10 mM STZ, pH 6.5, over six hours) | expected ratio of reaction velocities VControl/VSTZ, O-GlcNAcase (O-GlcNAcase [6]; calculated assuming competitive inhibition, KI=1.5 mM, 1.2 mM STZ in assay)
1 | – | CC(C)CC1=NC2C(OC(CO)C(O)C2O)S1 [Compound 9g, 1,2-dideoxy-2′-isobutyl-α-D-glucopyranoso-[2,1-d]-42′-triazoline D] | good inhibitors | Marked increases; also recorded: increase in cellular levels of O-GlcNAc-modified proteins | no abnormalities in proliferation rate or morphology | – | – | – | – | – | – | – | – | – | – | –
2 | – | CN(N=O)C(=O)N[C@H]1C(O)O[C@H](CO)[C@@H](O)[C@@H]1O (mixture of isomers) [STZ, streptozotocin] | poor inhibitor | – | – | moderate selectivity | 31 fold | 31 | 1.5 mM | 47 mM | 47 mM | greater than 6 hours | did not act as a time dependent inactivator; also recorded: does not show a time dependent inactivation | 1 to 2.5 mM | did not act as a time dependent inactivator; also recorded: does not show a time dependent inactivation | 1.17
3 | 17000 fold | CC1=N[C@@H]2[C@@H](O)[C@H](O)[C@@H](CO)O[C@@H]2S1 [Compound 9a, 2′-methyl-α-D-glucopyrano-[2,1-d]-Δ2′-thiazoline, reference compound] | – | Marked increases; also recorded: increase in cellular levels of O-GlcNAc-modified proteins | no abnormalities in proliferation rate or morphology | – | – | – | – | – | – | – | – | – | – | –

From US20080287375A1, “Selective Glycosidase Inhibitors, Methods of Making Inhibitors, and Uses Thereof” (SIMON FRASER UNIVERSITY, priority 2005, published 2008)
